Test results taken from patent publication US7649091B2, “Orally bioavailable low molecular weight metalloporphyrins as antioxidants” (Eukarion, Inc., priority 2003, dated 2010).
“And” between values parts separate entries of the source, which are not always exact repeats. Equal values may be shown once.

Columns and labels:
Format in all cases: in vivo, Balb/c male mice
[1] = Animal bioavailability of Compound 3, i.v. experiment: plasma and organ levels by LC/MS; details: IV, 82 min
[2] = as above; details: IV, 238 min
Procedure: (§1) Twenty 8-week-old Balb/c male mice (Charles River, US) were used in all experiments. Mice were kept at a temperature of 22±3° C. and provided with a standard diet and water.
(§2) For i.v. experiment mice received standard food before and during the experiment. For oral route, mice received no food 3 h before the start of the experiment and no food after.
0.1 mL of a solution of Compound 3, 3 mg/mL in mannitol 5% (previously sterilized by filtration onto Acrodisc® syringe filter 0.2 μm HT Tuffryn® membrane) was injected in the tail vein. Two animals were killed 0.5 h after injection, two animals were killed 1 h after injection, two animals were killed 2 h after injection and two animals were killed 4 h after injection.
(§3) At the time of sacrifice, mice were bled by heart puncture. Then organs were removed for biochemical studies (brain, kidney, liver and lung).
Red blood cells and plasma were separated by addition of heparine (15 μL) and centrifugation (2000 rpm, 5 min). […] The liquid layer (50 μL) was then analysed by LC/MS (MRM procedure, Column PARTISIL 5 ODS-3 RAC II, Cat. no. 4222-225).
Organs were washed with 5 ml of distillated water and dried with blotting paper. Volumes of organs were measured by addition of the organ into one half full of water graduated test tube. […]

[3] = Animal bioavailability of Compound 3, oral route experiment (gavage): plasma and organ levels by LC/MS; details: for Brain: Oral
Procedure: as §1, §2
Animals received by gavage a 0.1 mL of a solution of Compound 3 3 mg/mL in mannitol 5% (previously sterilized by filtration onto Acrodisc® syringe filter […] HT Tuffryn® membrane). Two animals were killed 0.5 h after gavage, two animals were killed 1 h after gavage, two animals were killed 2 h after gavage and two animals were killed 4 h after gavage.
as §3
Red blood cells and plasma were separated by addition of heparine (15 μL) and centrifugation (2000 rpm, 5 min). Then 1.5 mL of HPLC mobil phase (Ammonium acetate 3 mM, acetonitrile, methanol, formic acid; 1/1/1/0.07 (v/v) at pH=3) were added to 40 μL of plasma and the mixture was centrifugated (2000 rpm, 5 min). The liquid layer (50 μL) was then analysed by LC/MS (MRM procedure, Column PARTISIL 5 ODS-3 RAC II, Cat. no. 4222-225).
Organs were washed with 5 ml of distillated water and dried with blotting paper. Volumes of organs were measured by addition of the organ into one half full of water graduated test tube. Organs were dried a second time with blotting paper and then weighed. A volume of mobil phase (in mL) corresponding to 6 times of the organ weigh (in g) was added to the organ. The mixture was crushed mechanically (with JANKE & KUNKEL, IKA Labortechnik ULTRA-TURRAX T25; 24000 rpm, 1 min), sonicated 30 min and centrifugated 20 min (2000 rpm). To this mixture, 1 mL of the liquid layer was removed and filtrated with Acrodisc CRPTFE® syringe Filter in order to obtain a clear solution suitable for LC/MS analysis.

[4] = 0.1 mL of 3 mg/mL in mannitol 5%, individual mouse
[5] = third line = mean of the two mice

Substance: {[{(Porphine-5,15-diyl)bis[cyclopropyl-diyl]}](2-)-N^21,N^22,N^23,N^24}manganese(III)acetate [Compound 3]
- Brain [1, 4]: 25 ng/g and 75 ng/g
- Brain [1, 5]: 50 ng/g
- Brain [2, 4]: 89 ng/g and 91 ng/g
- Brain [2, 5]: 90 ng/g
- Brain, oral level as percent of IV level ([3]; Oral 70 min mean relative to IV 82 min mean (in parentheses)): (112%)
- Brain, oral level as percent of IV level ([3]; Oral 234 min mean relative to IV 238 min mean (in parentheses)): (10%)
- Brain ([3]; 70 min, 0.1 mL of 3 mg/mL in mannitol 5% by gavage, individual mouse): 88 ng/g and 24 ng/g
- Brain ([3]; 70 min, third line = mean of the two mice): 56 ng/g
- Brain ([3]; 234 min, 0.1 mL of 3 mg/mL in mannitol 5% by gavage, individual mouse): 8 ng/g and 9 ng/g
- Brain ([3]; 234 min, third line = mean of the two mice): 9 ng/g
- Lung ([3]; mouse, in vivo, po): 67 ng/g
